Source: patent US8697662B2, “Methods for treating Kaposi sarcoma” (PTC Therapeutics, Inc., priority 2009, dated 2014)
Marks after values point to notes of the source that are not given here.

Columns and labels:
[1] = 7-day oral toxicity study in dogs; format: in vivo
[2] = Single-dose oral toxicity study in rats; conditions: Sprague Dawley, rat, in vivo, 1 day
Protocol: A battery of genotoxicity studies was also performed. […] The L23 vehicle was used.
Because maximal exposure occurred at 100 mg/kg, this dose is considered the NOAEL for 1 day of dosing.

[3] = Functional observation battery, 7 days oral gavage; format: in vivo, Sprague Dawley rats; conditions: 40, 120, and 400 mg/kg daily oral gavage
HT1080 xenografts = experiment: Dose response assessment in nude mice bearing HT1080 xenografts (tumor and plasma human VEGF, tumor size, trough plasma level); format: in vivo, athymic nude mice
Protocol: Experimental Study Design. HT1080 cells (5×10^6 cells/mouse) were implanted subcutaneously in male athymic nude mice.
Tumor size was measured using calipers at periodic intervals during the study (data shown in Section 9.2.2). […] Mice were sacrificed, and excised tumors were homogenized in buffer containing protease inhibitors. Both terminal intratumoral and pathologic plasma human VEGF levels were measured using an ELISA that recognizes human VEGF121 and VEGF165 (as described in Section 9.1.1.1). Intratumoral VEGF levels were normalized to the total tumor protein concentration, while pathologic plasma human VEGF levels were expressed in pg/mL of plasma.
Experimental Design. The experimental design was reported in Section 9.1.2.2.

HT1080 cells = experiment: Cell cycle analysis by propidium iodide flow cytometry in HT1080 cells (S-phase accumulation, Table 24); format: cell-based, human; conditions: HT1080, normoxic, 18 hours
Protocol: Experimental Design. […] After treatment, cells were trypsinized, and stained with propidium iodide (PI) dye to measure DNA content of individual cells by flow cytometry. Output comprised histograms showing relative DNA content in 10,000 cells.
While compounds which cause greater than 20% of the cells to accumulate in S-phase at 100 nM are considered active, a larger percentage of cells may be accumulated in S-phase at lower doses depending on the Compound, as shown in FIG. 12 for example.

HeLa cells = experiment: […]-GLO luminescent cell viability assay in HeLa cultures; format: cell-based, human; conditions: any concentration tested
Protocol: Experimental Design. HeLa (human cervical carcinoma) cell cultures were established under normoxic conditions (21% oxygen). HeLa cells increase VEGF production 4- to 5-fold in response to hypoxia. […] At the completion of treatment, the conditioned media were collected and the VEGF protein levels were assayed in an enzyme-linked immunosorbent assay (ELISA) with primary antibodies that recognize the soluble VEGF121 and VEGF165 isoforms (R & D Systems, Minneapolis, Minn., USA). To ensure that decreases in VEGF concentration were not due to cytotoxicity, cultures were assayed using a standard assay ([…]-GLO® Luminescent Cell Viability Assay; Promega, Madison, Wis., USA) that measures total cellular adenosine triphosphate (ATP) concentrations as an indicator of cell viability.

[4] = biological target: human-ether-a-go-go-related gene (hERG) current (Homo sapiens, UniProt Q12809); experiment: Higher throughput hERG assay; format: biochemical
human-ether-a-go-go-related gene (hERG) current, sequence (Q12809 whole entry): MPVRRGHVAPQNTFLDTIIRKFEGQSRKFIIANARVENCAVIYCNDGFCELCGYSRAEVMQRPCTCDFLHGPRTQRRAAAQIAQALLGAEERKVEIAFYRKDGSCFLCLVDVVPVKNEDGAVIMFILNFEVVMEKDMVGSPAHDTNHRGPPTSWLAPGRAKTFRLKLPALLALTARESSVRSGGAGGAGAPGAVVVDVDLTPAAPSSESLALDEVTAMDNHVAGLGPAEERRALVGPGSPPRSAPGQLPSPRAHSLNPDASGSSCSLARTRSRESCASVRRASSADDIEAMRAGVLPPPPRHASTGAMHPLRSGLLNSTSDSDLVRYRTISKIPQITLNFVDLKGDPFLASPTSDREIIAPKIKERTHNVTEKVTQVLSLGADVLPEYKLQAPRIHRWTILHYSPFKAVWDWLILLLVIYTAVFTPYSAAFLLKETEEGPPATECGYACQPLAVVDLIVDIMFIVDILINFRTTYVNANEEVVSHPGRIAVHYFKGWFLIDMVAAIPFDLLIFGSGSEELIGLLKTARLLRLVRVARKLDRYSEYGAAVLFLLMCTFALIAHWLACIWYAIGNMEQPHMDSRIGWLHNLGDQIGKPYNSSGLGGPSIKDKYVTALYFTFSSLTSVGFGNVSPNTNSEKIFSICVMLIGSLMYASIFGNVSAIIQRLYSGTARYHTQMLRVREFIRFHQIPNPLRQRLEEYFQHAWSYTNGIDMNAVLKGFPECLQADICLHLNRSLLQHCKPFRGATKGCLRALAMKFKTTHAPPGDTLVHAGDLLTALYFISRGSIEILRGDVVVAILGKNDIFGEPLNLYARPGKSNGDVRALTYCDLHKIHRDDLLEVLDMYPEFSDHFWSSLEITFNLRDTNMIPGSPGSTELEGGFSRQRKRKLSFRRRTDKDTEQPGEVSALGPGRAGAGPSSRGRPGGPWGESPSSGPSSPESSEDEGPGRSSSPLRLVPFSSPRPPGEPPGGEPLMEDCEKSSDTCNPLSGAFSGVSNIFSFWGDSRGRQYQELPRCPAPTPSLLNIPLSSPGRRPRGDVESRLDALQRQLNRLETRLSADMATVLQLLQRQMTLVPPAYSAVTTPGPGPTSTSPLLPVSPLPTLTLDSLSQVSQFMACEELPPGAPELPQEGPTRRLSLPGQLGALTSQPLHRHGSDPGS

SY5Y xenografts = experiment: Tumor growth inhibition in subcutaneous SY5Y neuroblastoma xenografts; format: in vivo, athymic nude mice
Protocol: Experimental Design. SY5Y cells are derived from a human neuroblastoma, a childhood tumor arising in neural crest cells. SY5Y cells (1×10^7 cells/mouse) were implanted subcutaneously in male athymic nude mice.
Tumor size was measured by calipers at periodic intervals. When the average tumor size in a group exceeded 2000 mm^3, the mice in the group were sacrificed and excised tumors were assayed for intratumoral VEGF concentration as described in Section 9.1.1.1.

physiological VEGF-A = experiment: Phase 1 study in healthy volunteers: plasma and serum physiological VEGF-A concentrations; format: in vivo, human; conditions: any dose tested
Protocol: The study was performed under the oversight of the French health authorities. The study was not performed under an IND.
Plasma VEGF Concentrations: Plasma and serum VEGF concentrations and concentration changes from baseline were presented descriptively.

HT1080 spheroids = experiment: 3-dimensional growth of HT1080 spheroids (DNA content, BrdU, morphology); format: cell-based, human
Protocol: Experimental Design. HT1080 cells grown as a monolayer were trypsinized and seeded onto a 0.75% agar noble base to prevent the cells from attaching to the bottom of the tissue culture plate and to allow/promote the cells to self-adhere and grow as 3-dimensional spheroids. […] The cells were incubated for 22 and 45 hours at 37° C., in the presence of a 10% CO2 atmosphere. Spheroids were visually checked daily for morphological changes and a medium was replenished two times per week. […] These pulse labeled spheroids were then harvested, washed and trypsinized (triple action solution, Gibco), pelleted and prepared for FACS analysis with a FITC BrdU Flow Kit, (BD Pharmingen). Cells were fixed and permeabilized with paraformadehyde and DNA stained with 7-AAD followed by incubation with an antibody which specifically recognizes […] incorporated into DNA. As described in Section 9.3.1.4. Cells were analyzed and sorted by 7-AAD signal (DNA content) to determine cell cycle phase, and BrdU content (percent actively synthesizing DNA).
Spheroids, prepared as above, were treated with either vehicle alone (0.5% DMSO v/v final) added to the media or a Compounds provided herein (10 nM or 50 nM final concentration) in media to which vehicle has been added.

VEGF-A = experiment: Patients with Kaposi Sarcoma: circulating serum and plasma VEGF-A levels; format: in vivo, human
Source text: Assaying secreted cytokines characteristic for KS: To measure the effect of a Compound on KS, serum and plasma may be evaluated for levels of VEGF, VEGF-C, VEGF-D, VEGF-R1, VEGF-R2, VEGF165b, P1GF, IL-6, IL-8 and IL-10 at baseline (pre-dose of a Compound on Day 1) and mid-cycle (e.g., Day 15) of cycle 1, on Day 1 of all subsequent cycles, and at the end of the study. Depending on the results of these assays, other potential serum markers characteristic for KS may also be measured.

[5] = system: VEGF secreting cell lines; experiment: Cell cycle effects in several VEGF secreting human tumor cell lines (PI flow cytometry, Table 25); format: cell-based; conditions: all of the tested tumor types; 10 nM or 100 nM, 18 hours
Protocol: Experimental Design. Several VEGF secreting cell lines were assayed for cell cycle effects. […] At the completion of treatment, cells were harvested and cellular DNA content was analyzed via PI staining and flow cytometry (as described in Section 9.3.1.1).

COc1ccc(C2c3[nH]c4ccc(Cl)cc4c3CCN2C(=O)Oc2ccc(Cl)cc2)cc1 (racemic) [Compound #10]
NOAEL at 7 days ([1]; both sexes, beagle, dog, in vivo, dogs, oral capsules): 60 mg/kg/day
dose at which exposures were maximal ([1]; dogs, 10, 30, or 60 mg/kg/dose BID, 7 days): 30 mg/kg/dose BID
treatment-related clinical finding ([1]; dogs, males and females, 10, 30, or 60 mg/kg/dose BID, 7 days): increased incidence and frequency of soft stools
NOAEL for 7-days ([1]; dogs, oral capsules): 30 mg/kg/dose BID
dose at which maximal exposure occurred [2]: 100 mg/kg
behavioral or neurological effects (functional observation battery) [3]: no adverse behavioral or neurological effects
pathologic human VEGF levels in tumors and in plasma (in words) (HT1080 xenografts; all Compound #10 dose groups (0.3 to 10 mg/kg oral), 18 days): significantly suppressed
human VEGF reductions (in words) (HT1080 xenografts; all dose levels of >=1 mg/kg BID): essentially maximal
antitumor activity, tumor size over time (in words) (HT1080 xenografts; dose levels of >=1 mg/kg BID): maximum antitumor activity
tumor and pathologic plasma human VEGF concentrations (in words) (HT1080 xenografts; suboptimal dose of 0.3 mg/kg BID): partial reductions
concentration from which an accumulation of cells in S phase can be observed (HT1080 cells): ≥ 1 nM
cell cycle distribution, DNA content (in words) (HT1080 cells; Compound #10 0.3 nM to 100 nM, Compound 1205 10 nM): induced a redistribution of the cycling characteristics of the cell population
cytotoxicity (cell viability, ATP) (HeLa cells): No cytotoxicity was observed
inhibition of hERG current (in words) [4]: negative for meaningful inhibition
Mean % Inhibition of Intratumoral VEGF vs Vehicle at Sacrifice (SY5Y xenografts; 50 mg/kg QD, 250 mg/kg per week (Table 18), oral 5 days per week): 96* %
mean tumor size (in words) (SY5Y xenografts; through 15-days of dosing): essentially eliminated any increase in mean tumor size
plasma or serum physiological VEGF-A concentrations (physiological VEGF-A): No significant alterations
percentage of cells that incorporated BrdU (cells in S-phase) (in words) (HT1080 spheroids; HT1080 spheroids, 24 or 48 hours): not significantly altered
spheroid morphology (in words) (HT1080 spheroids; maintained in the presence of compound for three weeks, data not shown): no obvious morphological changes
cell cycle distribution of HT1080 spheroids (in words) (HT1080 spheroids; treated for 24 hours): not affected
cell cycle distribution of HT1080 spheroids (in words) (HT1080 spheroids; treated for 48 hours): not affected
circulating serum VEGF-A levels (in words) (VEGF-A; patients (FIG. 35A)): dose responsive reduction
circulating plasma VEGF-A levels (in words) (VEGF-A; patients (FIG. 35B)): dose responsive reduction
cell cycle delay versus inhibition of VEGF production (in words) [5]: coincident with the inhibition of VEGF production
